Test results from US6613718B2, “Aryl ether derivatives and processes for their preparation and herbicidal and desiccant compositions containing them” (Ishihara Sangyo Kaisha, Ltd., priority 2001, dated 2003).

Key:
Type in all cases: in vivo
[1] = system: field corn (Zea mays L., var. Dekalb 535, CORN); assay: Post-emerge greenhouse screening, crop safety / corn selectivity (phytotoxicity rating); conditions: 14 days after application
Procedure, shortened: (§1)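 Pre-emerge: seeds sown 1 day before spray; acetone solutions, 15–1000 g ai/ha, track sprayer; soil watered after application, then bottom-watered. Post-emerge: plants at 2-3 leaf stage (sown 8-21 days prior), 0.25% v/v non-ionic surfactant added, bottom-watered only. Rated 0-100 at 14 DAA.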

[2] = system: upland rice (Oryza sp., var.Tebonnet, RICE); assay: Post-emerge greenhouse screening, crop safety (phytotoxicity rating); conditions: 14 days after application
Procedure, shortened: as §1

[3] = system: soybean (Glycine max L., var. Pella 86, SOY); assay: as above; conditions: 14 days after application
Procedure, shortened: as §1

[4] = system: upland rice (Oryza sp., var.Tebonnet, RICE); assay: Pre-emerge greenhouse screening, crop safety (phytotoxicity rating); conditions: 14 days after application
Procedure, shortened: as §1

[5] = system: soybean (Glycine max L., var. Pella 86, SOY); assay: as above; conditions: 14 days after application
Procedure, shortened: as §1

[6] = system: field corn (Zea mays L., var. Dekalb 535, CORN); assay: as above; conditions: 14 days after application
Procedure, shortened: as §1

[7] = system: barnyardgrass (Echinochloa crus-galli, ECHCG); assay: Post-emerge greenhouse herbicide activity screening, phytotoxicity rating; conditions: 14 days after application
Procedure, shortened: as §1

[8] = system: redroot pigweed (Amaranthus retroflexus, AMARE); assay: as above
Procedure, shortened: as §1

[9] = system: johnsongrass (Sorghum halepense, SORHA); assay: as above; conditions: 14 days after application
Procedure, shortened: as §1

[10] = system: sicklepod (Cassia obtusifolia, CASOB); assay: as above
Procedure, shortened: as §1

[11] = system: common ragweed (Ambrosia artemisiifolia L., AMBEL); assay: as above
Procedure, shortened: as §1

[12] = system: velvetleaf (Abutilon theophrasti, ABUTH); assay: as above; conditions: 14 days after application
Procedure, shortened: as §1

[13] = system: ivyleaf morningglory (Ipomoea hederacea, IPOHE); assay: as above; conditions: 14 days after application
Procedure, shortened: as §1

[14] = system: green foxtail (Setaria viridis, SETVI); assay: as above
Procedure, shortened: as §1

[15] = system: lambsquarters (Chenopodium album, CHEAL); assay: as above
Procedure, shortened: as §1

[16] = system: large crabgrass (Digitaria sanguinalis, DIGSA); assay: as above; conditions: 14 days after application
Procedure, shortened: as §1

[17] = system: barnyardgrass (Echinochloa crus-galli, ECHCG); assay: Pre-emerge greenhouse herbicide activity screening, phytotoxicity rating; conditions: 14 days after application
Procedure, shortened: as §1

[18] = system: redroot pigweed (Amaranthus retroflexus, AMARE); assay: as above; conditions: 14 days after application
Procedure, shortened: as §1

[19] = system: johnsongrass (Sorghum halepense, SORHA); assay: as above; conditions: 14 days after application
Procedure, shortened: as §1

[20] = system: sicklepod (Cassia obtusifolia, CASOB); assay: as above; conditions: 14 days after application
Procedure, shortened: as §1

[21] = system: common ragweed (Ambrosia artemisiifolia L., AMBEL); assay: as above; conditions: 14 days after application
Procedure, shortened: as §1

[22] = system: velvetleaf (Abutilon theophrasti, ABUTH); assay: as above; conditions: 14 days after application
Procedure, shortened: as §1

[23] = system: ivyleaf morningglory (Ipomoea hederacea, IPOHE); assay: as above; conditions: 14 days after application
Procedure, shortened: as §1

[24] = system: green foxtail (Setaria viridis, SETVI); assay: as above; conditions: 14 days after application
Procedure, shortened: as §1

[25] = system: lambsquarters (Chenopodium album, CHEAL); assay: as above; conditions: 14 days after application
Procedure, shortened: as §1

[26] = system: large crabgrass (Digitaria sanguinalis, DIGSA); assay: as above; conditions: 14 days after application
Procedure, shortened: as §1

[27] = 125 g ai/ha, 14 days after application
[28] = 250 g ai/ha, 14 days after application

In the case of `Cn1c(C(F)(F)F)cc(=O)n(-c2cc(Oc3ccccc3[N+](=O)[O-])c(Cl)cc2F)c1=S` [Compound 1-49], the “CORN crop damage, phytotoxicity rating (0-100 scale)” value (from here on “CORN crop damage”) ([1]; 125 g ai/ha) is reported as 0, the “CORN crop damage” value ([1]; 250 g ai/ha) is reported as 0 and the “RICE crop damage, phytotoxicity rating (0-100 scale)” value (“RICE crop damage” below) ([2]; 125 g ai/ha) is reported as 0. For the same compound, the “RICE crop damage” value ([2]; 250 g ai/ha) was 25, the “SOY crop damage, phytotoxicity rating (0-100 scale)” value (shortened to “SOY crop damage”) ([3]; 125 g ai/ha) was 10 and the “SOY crop damage” value ([3]; 250 g ai/ha) was 15. For the same compound, the “RICE crop damage” value ([4]; 125 g ai/ha) was 30, the “RICE crop damage” value ([4]; 250 g ai/ha) was 35 and the “SOY crop damage” value ([5]; 125 g ai/ha) was 0. The “SOY crop damage” value ([5]; 250 g ai/ha) was 0, the “CORN crop damage” value ([6]; 125 g ai/ha) was 0 and the “CORN crop damage” value ([6]; 250 g ai/ha) was 0. For the same compound, the “ECHCG phytotoxicity rating (0-100 scale)” value ([7]; 125 g ai/ha) was 0, the “ECHCG phytotoxicity rating (0-100 scale)” value ([7]; 250 g ai/ha) was 0 and the “AMARE phytotoxicity rating (0-100 scale)” value ([8]; 31.3 g ai/ha) was 98. For the same compound, the “AMARE phytotoxicity rating (0-100 scale)” value ([8]; 62.5 g ai/ha) was 98, the “AMARE phytotoxicity rating (0-100 scale)” value [8, 27] was 99 and the “AMARE phytotoxicity rating (0-100 scale)” value [8, 28] was 100. For the same compound, the “SORHA phytotoxicity rating (0-100 scale)” value ([9]; 125 g ai/ha) was 0, the “SORHA phytotoxicity rating (0-100 scale)” value ([9]; 250 g ai/ha) was 0 and the “CASOB phytotoxicity rating (0-100 scale)” value ([10]; 31.3 g ai/ha) was 60. For the same compound, the “CASOB phytotoxicity rating (0-100 scale)” value ([10]; 62.5 g ai/ha) was 70, the “CASOB phytotoxicity rating (0-100 scale)” value [10, 27] was 75 and the “CASOB phytotoxicity rating (0-100 scale)” value [10, 28] was 75. For the same compound, the “AMBEL phytotoxicity rating (0-100 scale)” value ([11]; 31.3 g ai/ha) was 65, the “AMBEL phytotoxicity rating (0-100 scale)” value ([11]; 62.5 g ai/ha) was 65 and the “AMBEL phytotoxicity rating (0-100 scale)” value [11, 27] was 70. The “AMBEL phytotoxicity rating (0-100 scale)” value [11, 28] was 70, the “ABUTH phytotoxicity rating (0-100 scale)” value ([12]; 125 g ai/ha) was 98 and the “ABUTH phytotoxicity rating (0-100 scale)” value ([12]; 250 g ai/ha) was 100. The “IPOHE phytotoxicity rating (0-100 scale)” value ([13]; 125 g ai/ha) was 80, the “IPOHE phytotoxicity rating (0-100 scale)” value ([13]; 250 g ai/ha) was 80 and the “SETVI phytotoxicity rating (0-100 scale)” value ([14]; 31.3 g ai/ha) was 0. The “SETVI phytotoxicity rating (0-100 scale)” value ([14]; 62.5 g ai/ha) was 0, the “SETVI phytotoxicity rating (0-100 scale)” value [14, 27] was 0 and the “SETVI phytotoxicity rating (0-100 scale)” value [14, 28] was 0. The “CHEAL phytotoxicity rating (0-100 scale)” value ([15]; 31.3 g ai/ha) was 98, the “CHEAL phytotoxicity rating (0-100 scale)” value ([15]; 62.5 g ai/ha) was 98 and the “CHEAL phytotoxicity rating (0-100 scale)” value [15, 27] was 99. The “CHEAL phytotoxicity rating (0-100 scale)” value [15, 28] was 100, the “DIGSA phytotoxicity rating (0-100 scale)” value ([16]; 125 g ai/ha) was 0 and the “DIGSA phytotoxicity rating (0-100 scale)” value ([16]; 250 g ai/ha) was 0. The “ECHCG phytotoxicity rating (0-100 scale)” value ([17]; 125 g ai/ha) was 45, the “ECHCG phytotoxicity rating (0-100 scale)” value ([17]; 250 g ai/ha) was 98 and the “AMARE phytotoxicity rating (0-100 scale)” value ([18]; 125 g ai/ha) was 100. The “AMARE phytotoxicity rating (0-100 scale)” value ([18]; 250 g ai/ha) was 100, the “SORHA phytotoxicity rating (0-100 scale)” value ([19]; 125 g ai/ha) was 40 and the “SORHA phytotoxicity rating (0-100 scale)” value ([19]; 250 g ai/ha) was 60. For the same compound, the “CASOB phytotoxicity rating (0-100 scale)” value ([20]; 125 g ai/ha) was 50, the “CASOB phytotoxicity rating (0-100 scale)” value ([20]; 250 g ai/ha) was 70 and the “AMBEL phytotoxicity rating (0-100 scale)” value ([21]; 125 g ai/ha) was 70. For the same compound, the “AMBEL phytotoxicity rating (0-100 scale)” value ([21]; 250 g ai/ha) was 80, the “ABUTH phytotoxicity rating (0-100 scale)” value ([22]; 125 g ai/ha) was 95 and the “ABUTH phytotoxicity rating (0-100 scale)” value ([22]; 250 g ai/ha) was 100. For the same compound, the “IPOHE phytotoxicity rating (0-100 scale)” value ([23]; 125 g ai/ha) was 75, the “IPOHE phytotoxicity rating (0-100 scale)” value ([23]; 250 g ai/ha) was 80 and the “SETVI phytotoxicity rating (0-100 scale)” value ([24]; 125 g ai/ha) was 99. The “SETVI phytotoxicity rating (0-100 scale)” value ([24]; 250 g ai/ha) was 100, the “CHEAL phytotoxicity rating (0-100 scale)” value ([25]; 125 g ai/ha) was 100 and the “CHEAL phytotoxicity rating (0-100 scale)” value ([25]; 250 g ai/ha) was 100. The “DIGSA phytotoxicity rating (0-100 scale)” value ([26]; 125 g ai/ha) was 95 and the “DIGSA phytotoxicity rating (0-100 scale)” value ([26]; 250 g ai/ha) was 99.
